We go through ten compounds from patent US11466019B2, “Triazolo[4,5-d] pyramidine derivatives and their use as purine receptor antagonists” (Vernalis (R&D) Limited, priority 2008, dated 2022).

Like-named read-outs stand apart in the source and are kept apart here.

Test [1] has as its target T1, human adenosine A2A receptors (Homo sapiens, UniProt P29274).
T1 construct: host or cells: HEK-293
Kind of test: Adenosine receptor binding: binding affinities at hA2A receptors ([3H]CGS-21680 displacement). The following applies: read-out: Binding Affinity hA2A-Ki. As for the experimental part:
Adenosine Receptor Binding: Binding Affinities at hA2A Receptors
The resultant homogenate was kept for immediate use in the binding assay. Binding assays were performed in a total volume of 250 μL, containing [^3H]-CGS21680 (20.0 nM), membranes and additional drugs. Total binding was determined using drug dilution buffer (50 mM Tris-HCl pH 7.5, 10 mM MgCl2, 5% DMSO). Non-specific binding was determined using 300 μM CHA. […] Filters were left to dry overnight, and Microscint-0 scintillation fluid was then added to the filters. The filters were then left for at least 2 hours before the radioactivity was assessed using a Canberra Packard TopCount microplate scintillation counter.
To determine the free ligand concentration, three vials were counted with 25 μL of [^3H]CGS21680 containing 4 mL of Ultima-Gold MV scintillant on a Beckman LS6500 multi-purpose scintillation counter.
(§1) Data was analysed using a 4 parameter logistical equation and non-linear regression which yields affinity constants (pIC50), and slope parameters:
(§2) [formula] where E is the quantity of binding and [A] is the competitor concentration. The Ki is then determined using the Cheng-Prusoff equation: […]

Test [2] concerns the target T2, human adenosine A1 receptors (Homo sapiens, UniProt P30542).
T2 construct: expressed in transfected cells; host or cells: CHO-K1
T2 sequence (P30542 1-326): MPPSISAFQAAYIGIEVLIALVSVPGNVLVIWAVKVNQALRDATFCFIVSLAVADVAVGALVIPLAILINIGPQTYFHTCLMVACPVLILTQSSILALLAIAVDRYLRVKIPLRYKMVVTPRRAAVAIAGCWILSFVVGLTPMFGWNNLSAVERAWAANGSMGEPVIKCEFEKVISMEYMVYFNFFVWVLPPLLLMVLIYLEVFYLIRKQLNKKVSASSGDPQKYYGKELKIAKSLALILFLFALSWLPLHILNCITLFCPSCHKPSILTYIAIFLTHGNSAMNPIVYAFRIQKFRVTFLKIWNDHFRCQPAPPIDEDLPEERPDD
Kind of test: Adenosine receptor binding: binding affinities at hA1 receptors ([3H]DPCPX displacement). The following applies: for Ki: read-out: Binding Affinity hA1-Ki; for Binding Selectivity A1/A2a: ratio of Ki values. As for the experimental part:
Adenosine Receptor Binding: Binding Affinities at hA1 Receptors
The resultant homogenate was kept for immediate use in the binding.
Binding assays were performed in a total volume of 250 μL, containing [^3H]-DPCPX (3.0 nM), membranes and additional drugs. Total binding was determined using drug dilution buffer (50 mM Tris-HCl pH:7.5, 10 mM MgCl2, 5% DMSO). Non-specific binding was determined using 300 μM N6-cyclohexyladenosine (CHA). […] Filters were left to dry overnight, and Microscint-0 scintillation fluid was then added to the filters. The filters were then left for at least 2 hours before the radioactivity was assessed using a Canberra Packard TopCount microplate scintillation counter.
To determine the free ligand concentration, three vials were counted with 25 μL of [^3H]DPCPX containing 4 mL of Ultima-Gold MV scintillant on a Beckman LS6500 multi-purpose scintillation counter.
as §1, §2

In test [3] the target is T3, human adenosine A3 receptors (Homo sapiens, UniProt P0DMS8).
T3 construct: expressed in transfected cells; host or cells: CHO-K1
T3 sequence (P0DMS8 1-318): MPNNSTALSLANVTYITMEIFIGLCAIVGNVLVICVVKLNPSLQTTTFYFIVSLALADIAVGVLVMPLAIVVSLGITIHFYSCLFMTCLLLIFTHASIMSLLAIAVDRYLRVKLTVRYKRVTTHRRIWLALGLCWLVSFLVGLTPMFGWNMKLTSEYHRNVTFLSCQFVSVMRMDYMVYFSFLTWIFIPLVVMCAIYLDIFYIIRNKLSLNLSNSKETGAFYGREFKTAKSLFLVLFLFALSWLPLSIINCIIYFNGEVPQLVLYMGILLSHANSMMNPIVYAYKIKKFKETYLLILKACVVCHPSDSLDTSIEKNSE
Kind of test: Adenosine receptor binding: binding affinities at hA3 receptors ([125I]-AB MECA displacement). The following applies: for Ki: read-out: Binding Affinity hA3-Ki; for Binding Selectivity A3/A2a: ratio of Ki values. The protocol: [formula] Adenosine Receptor Binding: Binding Affinities at hA3 Receptors
The resultant homogenate was kept for immediate use in the binding assay.
Total binding was determined using drug dilution buffer (50 mM Tris-HCl pH 7.5, 10 mM MgCl2, 5% DMSO). Non-specific binding was determined using 10 μM IB-MECA. […] Filters were left to dry overnight, and Microscint-0 scintillation fluid was then added to the filters. The filters were then left for at least 2 hours before the radioactivity was assessed using a Canberra Packard TopCount microplate scintillation counter.
as §1, §2

The target in test [4] is T4, hA2B receptors (Homo sapiens, UniProt P29275).
T4 construct: host or cells: HEK-293
T4 sequence (P29275 1-332): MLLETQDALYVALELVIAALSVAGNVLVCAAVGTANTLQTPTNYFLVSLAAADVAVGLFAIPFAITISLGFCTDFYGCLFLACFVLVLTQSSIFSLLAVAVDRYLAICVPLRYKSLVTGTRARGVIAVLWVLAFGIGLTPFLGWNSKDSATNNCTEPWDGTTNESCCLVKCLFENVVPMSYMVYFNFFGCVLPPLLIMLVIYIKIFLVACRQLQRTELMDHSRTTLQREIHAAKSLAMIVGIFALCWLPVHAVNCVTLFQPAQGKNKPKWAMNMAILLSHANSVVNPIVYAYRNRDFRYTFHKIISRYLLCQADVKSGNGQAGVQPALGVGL
Kind of test: Adenosine receptor binding: binding affinities at hA2B receptors ([3H]-ZM241385 displacement). The following applies: for Ki: read-out: Binding Affinity hA2B-Ki; for Binding Selectivity A2b/A2a: ratio of Ki values.

[5] abbreviates: Table 1, [3H]CGS-21680 displacement, HEK-293 membranes.
The mark [6] stands for this setting: Table 1, [3H]DPCPX displacement, CHO-K1 membranes.
Where [7] appears, read: Table 1, [125I]-AB MECA displacement, CHO-K1 membranes.
Setting [8] is: Table 1, [3H]-ZM241385 displacement, HEK-293 membranes.
Where [9] appears, read: Table 2, comparative compounds of WO 02/055083.

T1 sequence (P29274 whole entry): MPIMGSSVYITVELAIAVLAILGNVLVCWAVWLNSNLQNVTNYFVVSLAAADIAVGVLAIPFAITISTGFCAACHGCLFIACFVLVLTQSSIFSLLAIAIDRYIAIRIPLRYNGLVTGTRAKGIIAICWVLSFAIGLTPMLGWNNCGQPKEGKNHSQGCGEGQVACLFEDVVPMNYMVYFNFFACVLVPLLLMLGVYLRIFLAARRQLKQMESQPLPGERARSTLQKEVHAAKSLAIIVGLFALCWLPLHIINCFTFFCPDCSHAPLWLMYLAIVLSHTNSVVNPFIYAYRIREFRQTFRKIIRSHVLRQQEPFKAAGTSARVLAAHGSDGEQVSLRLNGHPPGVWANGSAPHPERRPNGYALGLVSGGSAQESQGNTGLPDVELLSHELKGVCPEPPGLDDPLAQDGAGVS

Usually Ki stands for the dissociation constant of the complex between target and ligand, obtained from inhibition or displacement. `Nc1nc(-c2ccccc2)c2nnn(Cc3cccc(C4(O)CCC4)n3)c2n1` [Example 11, 7-phenyl-3-(6-[1-hydroxycyclobutyl]pyrid-2-ylmethyl)-3H-[1,2,3]triazolo[4,5-d]pyrimidin-5-amine]: the Ki came out at 5.2 nM in test [1] (setting [5]), 320 nM in test [2] (setting [6]), 4300 nM in test [3] (setting [7]) and 3270 nM in test [4] (setting [8]). Also, the “Binding Selectivity A1/A2a” value in test [2] (Table 1) amounted to 62. In addition, in test [3] (Table 1), the “Binding Selectivity A3/A2a” value is 836. For the same compound, the “Binding Selectivity A2b/A2a” value in test [4] (Table 1) is reported as 634.

As for `N#Cc1cccc(-c2nc(N)nc3c2nnn3Cc2cccc(C3(O)CCC3)n2)c1` [Example 23, 7-(3-cyanophenyl)-3-(6-[1-hydroxycyclobutyl]pyrid-2-ylmethyl)-3H-[1,2,3]triazolo[4,5-d]pyrimidin-5-amine], the Ki in test [1] (setting [5]) was determined as 14.8 nM; in test [2] (setting [6]) it was 1330 nM; in test [4] (setting [8]), 6820 nM. In test [2] (Table 1), the “Binding Selectivity A1/A2a” value is recorded as 90. The “Binding Selectivity A2b/A2a” value in test [4] (Table 1) was found to be 462.

With `CC(C)COCc1cccc(Cn2nnc3c(-c4ccco4)nc(N)nc32)n1` [WO 02/055083 Example 217, 7-(2-furyl)-3-(6-isobutyloxymethyl-2-pyridylmethyl)-3H-[1,2,3]triazolo[4,5-d]pyrimidine-5-amine, reference compound], the Ki in test [1] (setting [9]) was found to be 2.9 nM; in test [2] (setting [9]) it was 153 nM; in test [3] (setting [9]), 475 nM; in test [4] (setting [9]) it was 382 nM. The “Binding Selectivity A1/A2a” value in test [2] (Table 2) came out at 53. For the same compound, the “Binding Selectivity A3/A2a” value in test [3] (Table 2) came to 163. Further, the “Binding Selectivity A2b/A2a” value in test [4] (Table 2) is 131.

As to `N#Cc1cccc(-c2nc(N)nc3c2nnn3Cc2cccc(C3(O)CCCC3)n2)c1` [Example 21, 7-(3-cyanophenyl)-3-(6-[1-hydroxy-1-cyclopentyl]pyrid-2-ylmethyl)-3H-[1,2,3]triazolo[4,5-d]pyrimidin-5-amine], the Ki in test [1] (setting [5]) stood at 23.9 nM; in test [2] (setting [6]), 2390 nM; in test [4] (setting [8]) it was 2050 nM. Besides, the “Binding Selectivity A1/A2a” value in test [2] (Table 1) is 100. Besides, in test [4] (Table 1), the “Binding Selectivity A2b/A2a” value came to 86.

Regarding `Nc1nc(-c2ccccc2)c2nnn(Cc3cccc(CO[C@H]4CCOC4)n3)c2n1` [Example 7, S-7-phenyl-3-(6-[tetrahydrofuran-3-yl]oxymethylpyrid-2-ylmethyl)-3H-[1,2,3]triazolo[4,5-d]pyrimidin-5-amine], the Ki amounted to 13.4 nM in test [1] (setting [5]), 731 nM in test [2] (setting [6]) and 1240 nM in test [4] (setting [8]). Besides, the “Binding Selectivity A1/A2a” value in test [2] (Table 1) amounted to 54. The “Binding Selectivity A3/A2a” value in test [3] (Table 1) is 634. Besides, in test [4] (Table 1), the “Binding Selectivity A2b/A2a” value was 93.

In the case of `COCc1cccc(Cn2nnc3c(-c4ccc(C)o4)nc(N)nc32)n1` [WO 02/055083 Example 183, 3-(6-methoxymethyl-2-pyridylmethyl)-7-(5-methyl-2-furyl)-3H-[1,2,3]triazolo[4,5-d]pyrimidine-5-amine, reference compound], the Ki is 1.3 nM in test [1] (setting [9]), 84.1 nM in test [2] (setting [9]), 656 nM in test [3] (setting [9]) and 231 nM in test [4] (setting [9]). Also, the “Binding Selectivity A1/A2a” value in test [2] (Table 2) came out at 67. Besides, the “Binding Selectivity A3/A2a” value in test [3] (Table 2) is 519. In test [4] (Table 2), the “Binding Selectivity A2b/A2a” value is reported as 183.

For `COc1cccc(-c2nc(N)nc3c2nnn3Cc2cccc(C3(O)CCC3)n2)c1` [Example 17, 7-(3-methoxyphenyl)-3-(6-[1-hydroxycyclobutyl]pyrid-2-ylmethyl)-3H-[1,2,3]triazolo[4,5-d]pyrimidin-5-amine], the Ki in test [1] (setting [5]) was found to be 9.9 nM; in test [2] (setting [6]), 386 nM; in test [3] (setting [7]), 1950 nM; in test [4] (setting [8]), 4690 nM. Further, the “Binding Selectivity A1/A2a” value in test [2] (Table 1) is 39. Besides, in test [3] (Table 1), the “Binding Selectivity A3/A2a” value stood at 196. Besides, in test [4] (Table 1), the “Binding Selectivity A2b/A2a” value came to 472.

`Cl.Nc1nc(-c2ccco2)c2nnn(Cc3cccc(CO)n3)c2n1` [WO 02/055083 Example 213, 7-(2-furyl)-3-(6-hydroxymethyl-2-pyridylmethyl)-3H-[1,2,3]triazolo[4,5-d]pyrimidine-5-amine hydrochloride, reference compound]: the Ki turned out to be 2.7 nM in test [1] (setting [9]), 585 nM in test [2] (setting [9]), 1700 nM in test [3] (setting [9]) and 271 nM in test [4] (setting [9]). For the same compound, the “Binding Selectivity A1/A2a” value in test [2] (Table 2) is listed as 216. Moreover, the “Binding Selectivity A3/A2a” value in test [3] (Table 2) turned out to be 625. The “Binding Selectivity A2b/A2a” value in test [4] (Table 2) was determined as 100.

On to `CC(C)OCc1cccc(Cn2nnc3c(-c4ccco4)nc(N)nc32)n1` [WO 02/055083 Example 247, 7-(2-furyl)-3-(6-isopropoxymethyl-2-pyridylmethyl)-3H-[1,2,3]triazolo[4,5-d]pyrimidine-5-amine, reference compound], for which the Ki is 3 nM in test [1] (setting [9]), 276 nM in test [2] (setting [9]), 1460 nM in test [3] (setting [9]) and 454 nM in test [4] (setting [9]). Further, the “Binding Selectivity A1/A2a” value in test [2] (Table 2) was 92. Further, the “Binding Selectivity A3/A2a” value in test [3] (Table 2) came to 487. Besides, the “Binding Selectivity A2b/A2a” value in test [4] (Table 2) came to 151.

With `Nc1cccc(Cn2nnc3c(-c4ccccc4)nc(N)nc32)c1` [WO 02/055083 Example 151, 3-(3-aminobenzyl)-7-phenyl-3H-[1,2,3]triazolo[4,5-d]pyrimidine-5-amine, reference compound], the Ki is 5.3 nM in test [1] (setting [9]), 102 nM in test [2] (setting [9]), 831 nM in test [3] (setting [9]) and 276 nM in test [4] (setting [9]). Further, in test [2] (Table 2), the “Binding Selectivity A1/A2a” value was determined as 19. For the same compound, the “Binding Selectivity A3/A2a” value in test [3] (Table 2) was 156. In test [4] (Table 2), the “Binding Selectivity A2b/A2a” value is listed as 52.
